Source: patent US9157109B2, “Biosensors utilizing ink jet-printed biomolecule compatible sol gel inks and uses thereof” (McMaster University, priority 2009, dated 2015)
Read-outs that look alike come from different tables or passages of the source.

Key:
[1] = biological target: T1, acetylcholinesterase (AChE) (Electrophorus electricus, UniProt O42275); test: biochemical; type: biochemical; parameters: purchased Sigma-Aldrich; settings: for LOD / apparent saturated inhibition concentration: IPA lateral flow sensor; for detection limit (LOD): S/N=3, IPA lateral flow sensor
Protocol: 20 μL of IPA (0˜5 mM) was then added into each well and incubated for 5 min to allow color development. The absorbance at 640 nm was then measured using a TECAN plate reader.
The performance of the sensor under optimized conditions can be assessed in two ways: (1) directly (normal lateral flow-based chromatography) without incubating the contaminated sample, and (2) inverted lateral flow-based chromatography with incubation of the sample. For the latter case, after incubation 5 min at room temperature, the sensor was inverted again and immersed into dH2O for bringing up IPA by lateral flow action into sensing area of the strip above the liquid level.
The sensor was then inverted again and immersed into dH2O to bring up IPA by lateral flow action into the sensing area of the strip above the liquid level. The color intensity was determined by analyzing a digital image with the ImageJ software as described above.

[2] = biological target: T1, acetylcholinesterase (AChE); settings: read-out: KM, literature value; cited from earlier work
β-Glucuronidase (GUS) = biological target: T2, β-Glucuronidase (GUS) (Escherichia coli, UniProt P05804); type: biochemical, E. coli
T2 construct: purchased Sigma-Aldrich type VII-A (catalogue number not given)
Protocol: For this, all of these substrates were dissolved separately with sodium phosphate buffer (75 mM, pH 8). […] 20 μL of GUS (final concentration of 1 U/mL) was then added into each well and incubated for 30 min to allow color development. The absorbance at 610, 400, and 380 nm was then measured using a TECAN M1000 plate reader. A digital camera was also used to take a photograph of the plate. […] (0-10 mM), and FeCl3 (2 mM) were entrapped on paper as described previous section (FIG. 13b). The sensor was then immersed into GUS solution (1 U/mL) and removed as soon as the Gus solution has reached the sensing region through FeCl3 zone followed by a certain incubation time (5, 30, and 60 min) at room temperature.
Experiments were conducted firstly in 96-well plate, in which GUS (final concentration of 1 U/mL) was entrapped in silica gel. […] (4 mM) and oxidizing agents (1 mM each) were then added to each well (designated for the individual oxidizing agent), and incubated for 30 min. The concentration gradient (0-30 mM) of FeCl3 was also observed in 96-well plate. The absorbance at 610 was measured using a TECAN M1000 plate reader for each experiment. A digital camera was also used to take a photograph of the plate. […] (3 mM) were entrapped on paper using biocompatible silica material in order to make the sensor strips, as described in the previous section. The performance of the sensor was then assayed by dipping it into the GUS solution (1 U/mL) to allow the enzyme solution to reach the sensing zone through FeCl3 zone via lateral flow. The color development times tested were 5, 30, and 60 min.

[3] = biological target: T1, acetylcholinesterase (AChE); type: biochemical; parameters: purchased Sigma-Aldrich
[4] = biological target: T1, acetylcholinesterase (AChE); test: Ellman colorimetric assay on ink jet printed PVAm/silica/AChE+DTNB/silica paper sensor
Protocol: The performance can be assessed in two ways: a) by direct addition of substrate solution to sensing area, and b) by immersion into the substrate solution. […] However, in the case of direct analyte addition, only small amounts of reagent are needed (5 μL) relative to dipstick sensors (˜2 mL), reducing cost per assay. […] The color intensity of the sensing areas was quantified by obtaining a digital image (Canon A630, 8.0 MegaPixel operated in automatic mode with no flash and with the macroimaging setting on) and using ImageJ™ software to analyze the jpeg images. ImageJ™ software uses a […] color scale and for image processing the images were inverted so that areas that were originally white became black and corresponded to a color intensity of zero and while areas that were originally black became white and corresponded to […]. Based on this scale, increases in the amount of yellow color cause an increase in color intensity of the sensor strips. To account for variations in color intensity owing to differences in environmental illumination, a background subtraction (color intensity of the paper surface closest to the sensing area) was done for each data point.
The intensity was determined by analyzing a digital image with the ImageJ software as described above.

[5] = biological target: T1, acetylcholinesterase (AChE); type: biochemical; parameters: purchased Sigma-Aldrich; settings: milk and apple juice samples (pH adjusted 7-8)
[6] = biological target: T1, acetylcholinesterase (AChE); type: biochemical; parameters: purchased Sigma-Aldrich; remark: listed apart in the source

T2 sequence (P05804 whole entry): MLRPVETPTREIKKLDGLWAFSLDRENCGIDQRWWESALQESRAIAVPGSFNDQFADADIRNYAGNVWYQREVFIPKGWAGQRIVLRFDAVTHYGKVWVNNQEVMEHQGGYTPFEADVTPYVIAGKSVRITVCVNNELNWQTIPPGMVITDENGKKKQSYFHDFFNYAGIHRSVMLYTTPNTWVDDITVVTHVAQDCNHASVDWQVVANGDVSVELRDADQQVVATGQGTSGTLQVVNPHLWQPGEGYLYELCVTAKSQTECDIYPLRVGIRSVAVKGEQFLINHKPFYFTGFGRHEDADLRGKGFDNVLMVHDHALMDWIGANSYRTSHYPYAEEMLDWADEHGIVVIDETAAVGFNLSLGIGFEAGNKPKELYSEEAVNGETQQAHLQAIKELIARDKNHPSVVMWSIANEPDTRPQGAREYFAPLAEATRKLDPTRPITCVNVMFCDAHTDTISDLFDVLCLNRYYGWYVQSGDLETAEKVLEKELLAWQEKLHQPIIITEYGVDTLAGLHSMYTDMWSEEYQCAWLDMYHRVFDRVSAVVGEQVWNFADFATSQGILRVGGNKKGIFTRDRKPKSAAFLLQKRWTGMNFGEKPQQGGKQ
T1 sequence (O42275 24-633): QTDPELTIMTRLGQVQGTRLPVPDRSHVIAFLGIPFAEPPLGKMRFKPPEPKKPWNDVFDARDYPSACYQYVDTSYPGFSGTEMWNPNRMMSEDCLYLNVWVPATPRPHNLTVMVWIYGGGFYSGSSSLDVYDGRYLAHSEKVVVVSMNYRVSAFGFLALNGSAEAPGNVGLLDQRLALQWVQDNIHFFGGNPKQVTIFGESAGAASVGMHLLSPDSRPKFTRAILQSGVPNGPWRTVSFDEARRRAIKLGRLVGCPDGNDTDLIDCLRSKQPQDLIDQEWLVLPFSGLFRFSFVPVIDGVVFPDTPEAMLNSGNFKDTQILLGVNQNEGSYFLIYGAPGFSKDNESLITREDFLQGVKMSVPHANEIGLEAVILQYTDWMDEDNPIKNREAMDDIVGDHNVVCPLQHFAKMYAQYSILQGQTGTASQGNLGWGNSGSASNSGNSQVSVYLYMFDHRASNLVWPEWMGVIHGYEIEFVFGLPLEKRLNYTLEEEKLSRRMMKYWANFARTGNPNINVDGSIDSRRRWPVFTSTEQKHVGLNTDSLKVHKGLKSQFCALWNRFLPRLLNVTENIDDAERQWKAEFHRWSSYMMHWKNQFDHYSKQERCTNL

CCOC(=O)CC(SP(=S)(OC)OC)C(=O)OCC (stereo not shown) [malathion]
IC50 [1]: ~10 nM
LOD [1]: ca. 10 μM

CC(=O)Oc1ccc(N=C2C=CC(=O)C=C2)cc1 [IPA, indophenyl acetate]
Km [2]: ~700 µM
Km [1]: ~1500 µM

O=C(O)[C@H]1O[C@@H](Oc2ccc([N+](=O)[O-])cc2)[C@H](O)[C@@H](O)[C@@H]1O [PNPG, p-nitrophenyl-β-D-glucuronide]
visual color formation via GUS catalyzed hydrolysis (β-Glucuronidase (GUS); in solution for 30 min): relatively faint color

CNC(=O)Oc1cccc2ccccc12 [carbaryl]
IC50 [1]: 50 nM
apparent saturated inhibition concentration [1]: ~5 µM
detection limit (LOD) [1]: ~100 nM

Triton X-100
effect of additive on AChE activity in solution [3]: No significant loss of AChE activity

CNC(=O)Oc1cccc2c1OC(C)(C)O2 [bendiocarb]
IC50 [1]: 20 nM
apparent saturated inhibition concentration [1]: around 1 μM
detection limit (LOD) [1]: ca. 10 nM

N#CC1=C(C#N)C(=O)C(Cl)=C(Cl)C1=O [DDQ, 2,3-dichloro-5,6-dicyanobenzoquainone]
blue color development with oxidizing agent (β-Glucuronidase (GUS)): poorest performance for blue color development

NC1CCCCC1.O=C(O)[C@H]1O[C@@H](Oc2c[nH]c3ccccc23)[C@H](O)[C@@H](O)[C@@H]1O [IBDG, indoxyl-β-D-glucuronide cyclohexylammonium salt]
visual color formation via GUS catalyzed hydrolysis (β-Glucuronidase (GUS)): relatively faint color

OCC(O)CO [glycerol]
effect of additive on AChE activity in solution [3]: did not produce a decrease in AChE activity

CCOP(=O)(OCC)Oc1ccc([N+](=O)[O-])cc1 [paraoxon]
detection limit (LOD) ([4]; S/N=3, Ellman paper sensor): ca. 100 nM
inhibition of AChE ([4]; at 100 nM inhibitor): ~25%
LOD [1]: ca. 10 μM
detection limit [5]: ~10 nm
inhibition of AChE ([6]; 1 mM paraoxon sprayed on apple and head lettuce): ~50%
inhibition of AChE ([6]; 50 mM paraoxon sprayed on apple and head lettuce): almost complete inhibition

O.O.O.O.O.O.[Cl-].[Cl-].[Cl-].[Fe+3] [FeCl3, FeCl3. 6H2O]
blue color development with oxidizing agent (β-Glucuronidase (GUS)): strongest visual color intensity

aflatoxin B1 [AfB1]
detection limit (LOD) [4]: ~30 nM
inhibition of AChE ([4]; 0.1 µM): ~45%
IC50 ([4]; read-out: IC50 for inhibition of AChE): ~100 nM
